Measurements reported in the NIST ThermoML archive (doi:10.1016/j.fluid.2005.07.010).
± gives the expanded uncertainty stated by the source.

Details: Liquid; for mass density / viscosity: 298.15 K, 101.33 kPa; for Normal boiling temperature: Ebulliometric method (Recirculating still)

mass density	viscosity	Normal boiling temperature	Compound
894.4 ± 0.4 kg/m3	0.426 ± 0.016 mPa·s	77.12 ± 0.2 °C	CCOC(C)=O [ethyl acetate]
1043.6 ± 0.6 kg/m3	1.115 ± 0.035 mPa·s	117.80 ± 0.2 °C	CC(=O)O [acetic acid]
785.4 ± 0.6 kg/m3	1.082 ± 0.034 mPa·s	78.28 ± 0.2 °C	CCO [ethanol]
